Where two headings read alike, the source gives them in different places.
Legend:
[1] = test system: Serratia marcescens expressing IMP-1 (CL5741); format: cell-based; details: for Serratia marcescens expressing IMP-1 (CL5741) MITC95: with imipenem 1 μg/ml, 95% inhibition of bacterial growth; for Serratia marcescens MITC95: IMP-1 strain CL5741, with imipenem 1 μg/ml, 95% inhibition of growth
In short: (§1)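 Colonies grown overnight on blood agar at 35° C were suspended in saline, diluted 1:100 into 1.1×CAMHB and dispensed. Imipenem was added to 1 μg/ml, then test compound. After 22 hours to 24 hours at 35° C, absorbance was recorded.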

[2] = test system: Klebsiella pneumoniae expressing VIM-1 (IHMA599644); format: cell-based; details: for Klebsiella pneumoniae expressing VIM-1 (IHMA599644) MITC95: with imipenem 1 μg/ml, 95% inhibition of bacterial growth; for Klebsiella pneumoniae MITC95: VIM-1 strain IHMA599644, with imipenem 1 μg/ml, 95% inhibition of growth
In short: as §1

[3] = test system: Escherichia coli expressing NDM-1 (CLB30005, CLB30016); format: cell-based; details: with imipenem 1 μg/ml; for Escherichia coli expressing NDM-1 (CLB30016) MITC95: 95% inhibition of bacterial growth; for Escherichia coli MITC95: NDM-1 strain, 95% inhibition of growth
In short: as §1

VIM-1 = VIM-1 (Pseudomonas aeruginosa (strain ATCC 15692 / DSM 22644 / CIP 104116 / JCM 14847 / LMG 12228 / 1C / PRS 101 / PAO1), UniProt A0A0F7KYQ8); test: biochemical; details: CCF2-FA substrate, 30 pM enzyme, 2 hours at 25° C.
In short: (§2)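 Enzyme activity was measured by fluorescence using CCF2-FA, a cephalosporin-linked 7-hydroxycoumarin/fluorescein substrate, with inhibitor, metallo-β-lactamase and substrate incubated together for 2 hours at 25° C. IC50 came from a 4-parameter fit of inhibition versus log inhibitor concentration.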

NDM-1 = NDM-1 (Klebsiella pneumoniae, UniProt C7C422); test: biochemical; format: biochemical; details: fluorescence assay, CCF2-FA substrate, 1 pM enzyme, 2 hours at 25° C.; read-out: NDM-1 IC50
Sequence of NDM-1 (C7C422 whole entry, looked up, species assumed): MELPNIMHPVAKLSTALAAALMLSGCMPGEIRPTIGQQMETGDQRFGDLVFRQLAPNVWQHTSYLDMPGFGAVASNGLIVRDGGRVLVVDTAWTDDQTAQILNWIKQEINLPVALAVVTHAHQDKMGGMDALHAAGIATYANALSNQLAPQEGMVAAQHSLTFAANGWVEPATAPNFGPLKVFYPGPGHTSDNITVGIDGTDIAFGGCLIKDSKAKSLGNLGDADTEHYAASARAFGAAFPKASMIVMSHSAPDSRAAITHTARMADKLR
In short: as §2

IMP-1 = IMP-1 (Serratia marcescens, UniProt P52699); test: biochemical; format: biochemical; details: fluorescence assay, CCF2-FA substrate, 2 pM enzyme, 2 hours at 25° C.; read-out: IMP-1 IC50
Sequence of IMP-1 (P52699 whole entry, looked up, species assumed): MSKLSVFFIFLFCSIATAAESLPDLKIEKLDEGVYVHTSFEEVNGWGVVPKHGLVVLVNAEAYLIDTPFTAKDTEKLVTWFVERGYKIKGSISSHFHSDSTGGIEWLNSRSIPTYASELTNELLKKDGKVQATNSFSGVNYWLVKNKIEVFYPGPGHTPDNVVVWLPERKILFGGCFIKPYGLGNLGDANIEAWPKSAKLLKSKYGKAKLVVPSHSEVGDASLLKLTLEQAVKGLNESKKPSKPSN
In short: as §2

[4] = test system: Pseudomonas aeruginosa efflux− (MB9799), IMP-1; format: cell-based; details: concentration restoring susceptibility to imipenem at 2 μg/mL in the presence of a class A, C, D serine β-lactamase inhibitor closely related to relebactam
In short: (§3)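 PAO1 pair, broth microdilution; fixed β-lactam (imipenem/ceftazidime) at ~CLSI breakpoint + fixed class A/C BLI for AmpC; serial MBLi titration; endpoint = MBLi conc. restoring susceptibility; MB9798:MB9799 ratio = efflux liability.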

[5] = test system: Pseudomonas aeruginosa MB9798 vs MB9799; details: ratio MITC95 PA_9798/MITC95 PA_9799
In short: as §3

[6] = test system: Pseudomonas aeruginosa efflux+ (MB9798), IMP-1; format: cell-based; details: concentration restoring susceptibility to imipenem at 2 μg/mL in the presence of a class A, C, D serine β-lactamase inhibitor closely related to relebactam
In short: as §3

[7] = fluorescence assay, read-out: VIM-1 IC50

Compound | Serratia marcescens expressing IMP-1 (CL5741) MITC95 [1] [µM] | Klebsiella pneumoniae expressing VIM-1 (IHMA599644) MITC95 [2] [µM] | Escherichia coli expressing NDM-1 (CLB30016) MITC95 [3] [µM] | IC50 (VIM-1; [7]) [nM] | IC50 (NDM-1) [nM] | IC50 (IMP-1) [nM] | P. aeruginosa expressing IMP-1, efflux − (MB9799) MITC95 [4] [µM] | Efflux ratio [5] | P. aeruginosa expressing IMP-1, efflux + (MB9798) MITC95 [6] [µM] | IC50 (VIM-1; VIM-1 IC50, fluorescence assay) [nM] | Serratia marcescens MITC95 [1] [µM] | Klebsiella pneumoniae MITC95 [2] [µM] | Escherichia coli MITC95 [3] [µM]
Nc1ccc(-c2ccc(S(N)(=O)=O)c(S(N)(=O)=O)c2-c2nn[nH]n2)cn1 [Example 155, 4-(6-Aminopyridin-3-yl)-3-(2H-tetrazol-5-yl)benzene-1,2-disulfonamide] | 0.6406 | 2.563 | 0.0625 | 0.804 | 1.64 | 0.658 | 1.281 | 4.88 | 6.25 |  |  |  | 
Nc1ccc(-c2ccc(S(=O)(=O)NCCc3ncc[nH]3)c(S(N)(=O)=O)c2-c2nn[nH]n2)cn1 [Example 218, N^1-(2-(1H-imidazol-2-yl)ethyl)-4-(6-aminopyridin-3-yl)-3-(2H-tetrazol-5-yl)benzene-1,2-disulfonamide] | 0.7813 | 3.125 | 0.1953 |  | 0.786 | 0.694 | 1.563 | 15.99 | 25 | 0.549 |  |  | 
CN1CC(N(C)S(=O)(=O)c2ccc(-c3cccc4sc(N)nc34)c(-c3nnn[nH]3)c2S(N)(=O)=O)C1.O=C(O)C(F)(F)F [Example 107, 3-(4-(2-aminobenzo[d]thiazol-4-yl)-N-methyl-2-sulfamoyl-3-(1H-tetrazol-5-yl)phenylsulfonamido)-1-methylazetidin-1-ium 2,2,2-trifluoroacetate] | 3.125 | 6.25 | 3.125 | 1.69 | 0.184 | 1.4 | 1.563 | 4.00 | 6.25 |  |  |  | 
NC[C@H](N)CNS(=O)(=O)c1ccc(-c2cccc3[nH]c(N)nc23)c(-c2nn[nH]n2)c1S(N)(=O)=O [Example 370, (S)-4-(2-amino-1H-benzo[d]imidazol-4-yl)-N1-(2,3-diaminopropyl)-3-(2H-tetrazol-5-yl)benzene-1,2-disulfonamide] |  |  |  |  | 0.0459 | 0.663 | 0.7813 | 1.00 | 0.7813 | 0.209 | 1.172 | 1.563 | 0.3906
NCCCNS(=O)(=O)c1ccc(-c2cccc3[nH]cnc23)c(-c2nn[nH]n2)c1S(N)(=O)=O [Example 198, N^1-(3-aminopropyl)-4-(1H-benzo[d]imidazol-4-yl)-3-(2H-tetrazol-5-yl)benzene-1,2-disulfonamide] | 1.172 | 2.344 | 1.172 | 0.135 | 0.0592 | 0.293 | 0.7813 | 1.00 | 0.7813 |  |  |  | 
NCCNS(=O)(=O)c1ccc(-c2cccc3[nH]c([C@@H](N)CN)nc23)c(-c2nn[nH]n2)c1S(N)(=O)=O [Example 336, (S)—N1-(2-aminoethyl)-4-(2-(1,2-diaminoethyl)-1H-benzo[d]imidazol-4-yl)-3-(2H-tetrazol-5-yl)benzene-1,2-disulfonamide] |  |  |  | 0.233 | 0.325 | 2.9 | 1.563 | 2.00 | 3.125 |  | 3.125 | 3.125 | 1.563
